# Test results: patent US20140309309A1, “COSMETIC FORMULATION” (EVONIK INDUSTRIES AG, priority 2011, published 2014)
# Tests used:
# human dermal fibroblasts = assay: Gene expression in human dermal fibroblasts (Affymetrix GeneChip); format: cell-based; conditions: 5 μM, 24 h, vs vehicle-treated fibroblasts
# Source text: The present example investigates the effect of N-hexanoyl-phytosphingosine on the gene expression in fibroblasts (normal human dermal fibroblasts, NHDFs).
# For this, firstly primary human dermal fibroblasts (human dermal fibroblasts derived from neonatal skin, HDF), cryopreserved, Lifeline Cell Technology, acquired via CellSystems® Biotechnologie Vertrieb GmbH, in Minimum Essential Medium (MEM) with Earle's salts (EMEM) (PAA Laboratories GmbH) were cultivated with the addition of 10% foetal bovine serum (FBS, Invitrogen Ltd, UK), 1% nonessential amino acids (NEAA) (100×) (PAA Laboratories GmbH), 1% L-glutamine (100×) (Invitrogen Ltd) and 1% penicillin/streptomycin (5000 U/mL penicillin and 5000 μg/mL streptomycin/mL, (Invitrogen Ltd) at 37° C. and 5% CO2. For gene expression studies, the cells were sown out in 6-well plates and cultivated to the point of subconfluence (maximum 60%).
# Then, the medium was removed from the cells and replaced by fresh medium containing N-hexanoyl-phytosphingosine. The vehicle used was methanol, the end concentration of the vehicle in the medium being 0.05% (v/v). The end concentration of N-hexanoyl-phytosphingosine in the medium was 5 μM. As the control, the cultivation was carried out without active ingredient, only with medium (vehicle). All of the cultivations were performed twice (with cells from two different donors).
# (§1) After cultivation for 24 hours, the medium was removed and the cells were lysed by adding RNeasy Lysis Buffer (Qiagen). Isolation of whole-RNA was carried out in accordance with manufacturer's instructions. Combined, the whole-RNA was isolated by means of RNeasy Mini Kit (Qiagen). The RNA concentration was determined by spectrophotometry using a SmartSpec Plus (Biorad). Purity and integrity of the RNA were determined using Agilent 2100 Bioanalyzer with a 6000 Nano LabChip reagent set (Agilent Technologies, Inc.). RNA samples were stored at −80° C. until further processing.
# (§2) Analysis of the gene expression was carried out using Affymetrix HGU133 plus 2.0 GeneChips (Affymetrix), with 2 μg of whole-RNA being used. For this, the RNA of the two different donor cultures was pooled. Expression analyses including standard data evaluation were carried out in accordance with manufacturer's instructions (AFFYMETRIX, INC.).
# [1] = system: differentiated human adipocytes; assay: Gene expression in differentiated human adipocytes (Affymetrix GeneChip); format: cell-based; conditions: 2.5 μM, 6 h, vs vehicle-treated adipocytes
# Procedure: This example investigated the effect of N-hexanoyl-phytosphingosine on the gene expression in differentiated human adipocytes.
# Cells, media and reagents were acquired from PromoCell. The cultivation was carried out in accordance with the protocol from PromoCell. Unless stated otherwise, the cells were cultivated at 37° C. and 5% CO2. Firstly, proliferating subcutaneous primary human white preadipocytes (HWP) from two different donors were cultivated in a special preadipocyte growth medium until complete confluence was reached. The medium was then exchanged for a special differential medium, and the cells were incubated with this medium for 72 hours. The medium was then exchanged for a further medium (Adipocyte Nutrition Medium) in order to conclude the differentiation process. The cells were further incubated with this medium for twelve days, with media exchange being carried out every three days. Ultimately, the medium was removed from the cells and replaced by fresh medium containing N-hexanoyl-phytosphingosine. The vehicle used was methanol, the end concentration of the vehicle in the medium being 0.05% (v/v). End concentration of N-hexanoyl-phytosphingosine in the medium was 2.5 μM. As the control, the cultivation was carried out without active ingredient, only with medium (vehicle). All of the cultivations were performed twice (with cells from two different donors).
# as §1, with “six” for “24”
# as §2, with “(Affymetrix.).” for “(AFFYMETRIX, INC.).”
# healthy female subjects [2] = assay: Human study, face: sagging of the skin assessed by a dermatologist (4-point scale); format: in vivo; conditions: 0.2% by mass in formulation with 1,2-pentanediol, twice daily, twelve weeks, all time points, compared with vehicle group (FIG. 1)
# Source text: (§3) The panel comprises 60 healthy female subjects of Caucasian origin up to 70 years of age who were in their postmenopausal phase (average age 59.4 years). The formulations were applied on the face. Vehicle formulation (vehicle) and N-hexanoyl-phytosphingosine formulation (N-hexanoyl-phytosphingosine) was each applied by 30 subjects. In the case of the non-inventive vehicle formulation, which serves as comparison formulation, the 0.2% by mass of N-hexanoyl-phytosphingosine were replaced by an additional 0.2% by mass of water.
# (§4) Application was carried out twice daily, morning and evening, over a period of twelve weeks. Measurement points were before the start of application (T0), after four weeks (T4), after eight weeks (T8) and after twelve weeks (T12). A period over four weeks is accordingly referred to as T4-T0.
# (§5) The measurements were performed in a temperature- and humidity-controlled room (24±2° C., 50±10 relative humidity). The subjects were requested to apply no product up to twelve hours prior to measurement and to wash their face three hours before measurement.
# The sagging of the skin was assessed by a dermatologist by means of visual and tactile evaluation by reference to a 4-point scale (0=absent, 1=minimum, 2=moderate, 3=maximum).
# healthy female subjects [3] = assay: Human study, face: skin roughness (Primos Pico, Sa parameter); format: in vivo; conditions: 0.2% by mass in formulation, twice daily, entire study period of twelve weeks (FIG. 2)
# Source text: as §3
# Application was carried out twice daily, morning and evening, over a period of twelve weeks. Measurement points were before the start of application (T0), after four weeks (T4), after eight weeks (T8) and after twelve weeks (T12). A period over four weeks is accordingly referred to as T4-T0. […]
# The roughness of the skin was determined by means of Primos Pico optical 3D-Sensor (GF Messtechnik GmbH). […] Bands are projected onto the surface of the skin and the projection is recorded under a defined triangulation angle by means of a CCD camera. The topography of the measured object is calculated by the position of the bands and the grey scales of all registered image points. […] The average roughness Sa was determined; this reflects the arithmetic mean of the skin roughness in the recorded image.
# healthy female subjects [4] = assay: Human study, face: echogenicity of the skin (DermaScan C); format: in vivo; conditions: 0.2% by mass in formulation, twice daily
# Source text: as §3, §4, §5
# The echogenicity of the skin was measured using a DermaScan® C ultrasound scanner. The instrument is based on the physical principle of the ultrasound emission of a transducer. […] Their intensity is detected by a microprocessor. […] The echogenicity was recorded in the B-scan mode and given in %. […]
# [5] = Percutaneous absorption study on a pig skin model; format: in vitro ADME; conditions: 0.2% in formulation in combination with 1.80% 1,2-pentanediol vs corresponding formulations without 1,2-pentanediol (FIG. 4)
# Procedure: The increase in the skin penetration of N-hexanoyl-phytosphingosine from a cosmetic formulation as a result of adding 1,2-pentanediol was shown in the course of a percutaneous absorption study on a pig skin model. In practice, the study was performed in accordance with a current protocol, as described for example in S. Richert, A. Schrader, K. Schrader, Int. J. Cosmet. Sci. 2003, 25, 5-13.
# healthy female subjects [6] = assay: Human study, upper arm: echogenicity of the skin (DermaScan C); format: in vivo; conditions: twice daily
# Source text: The panel consisted of healthy female subjects of Caucasian origin up to 70 years old who were in their postmenopausal phase. The echogenicity of the skin on the upper arms of the subjects was at most 60% (DermaScan® C, B-scan mode). The formulations were applied to the upper arms. Vehicle formulation (vehicle) and formulation with different concentrations of N-hexanoyl-phytosphingosine (N-hexanoyl-phytosphingosine) was applied by in each case 16 subjects. In the non-inventive vehicle formulation, which serves as comparison formulation, the corresponding % by mass of N-hexanoyl-phytosphingosine were replaced by additional % by mass of water.
# as §4
# The measurements were performed in a temperature- and humidity-controlled room (24±2° C., 50±10 relative humidity). The subjects were asked to apply no product up to twelve hours before measurement and to no longer wash their arms from three hours before measurement.
# The skin slackening was measured by measuring the echogenicity of the skin by means of a DermaScan® C ultrasound scanner. The echogenicity was recorded in the B-scan mode and given in %. […]
compound,measurement,setting,value
CCCCCCCCCCCCCC[C@@H](O)[C@@H](O)[C@H](CO)NC(=O)CCCCC [N-hexanoyl-phytosphingosine],Regulation of the gene expression by N-hexanoyl-phytosphingosine: ACAN (aggrecan),human dermal fibroblasts,+1.7 fold
same,"Regulation of the gene expression by N-hexanoyl-phytosphingosine: COL10A1 (collagen, type X, alpha 1)",human dermal fibroblasts,+3.2 fold
same,"Regulation of the gene expression by N-hexanoyl-phytosphingosine: COL11A1 (collagen, type XI, alpha 1)",human dermal fibroblasts,+2.2 fold
same,Regulation of the gene expression by N-hexanoyl-phytosphingosine: FGF18 (fibroblast growth factor 18),human dermal fibroblasts,+2.2 fold
same,Regulation of the gene expression by N-hexanoyl-phytosphingosine: HAPLN1 (hyaluronan and proteoglycan link protein),human dermal fibroblasts,+4.1 fold
same,Regulation of the gene expression by N-hexanoyl-phytosphingosine: IGF1 (insulin-like growth factor 1),human dermal fibroblasts,+2.0 fold
same,Regulation of the gene expression by N-hexanoyl-phytosphingosine: ITGA2 (integrin alpha-2),human dermal fibroblasts,+1.6 fold
same,Regulation of the gene expression by N-hexanoyl-phytosphingosine: LEP (leptin),human dermal fibroblasts,+2.2 fold
same,Regulation of the gene expression by N-hexanoyl-phytosphingosine: MMP3 (matrix metallopeptidase 3),human dermal fibroblasts,−1.4 fold
same,Regulation of the gene expression by N-hexanoyl-phytosphingosine: ACACA (acetyl-coenzyme A carboxylase alpha),[1],+1.5 fold
same,Regulation of the gene expression by N-hexanoyl-phytosphingosine: ADIPOQ (adiponectin),[1],+2.2 fold
same,"Regulation of the gene expression by N-hexanoyl-phytosphingosine: CEBPB (CAAT/enhancer binding protein (C/EBP), beta)",[1],+2.1 fold
same,Regulation of the gene expression by N-hexanoyl-phytosphingosine: FAS (fatty acid synthase),[1],+1.4 fold
same,Regulation of the gene expression by N-hexanoyl-phytosphingosine: LEP (leptin),[1],+2.7 fold
same,Regulation of the gene expression by N-hexanoyl-phytosphingosine: LEPR (leptin receptor),[1],+4.1 fold
same,Regulation of the gene expression by N-hexanoyl-phytosphingosine: LIPC (lipase),[1],−2.5 fold
same,"Regulation of the gene expression by N-hexanoyl-phytosphingosine: PPARD (peroxisome proliferator activated receptor, delta)",[1],+1.7 fold
same,"Regulation of the gene expression by N-hexanoyl-phytosphingosine: PPARG (peroxisome proliferator activated receptor, gamma)",[1],+2.5 fold
same,Regulation of the gene expression by N-hexanoyl-phytosphingosine: THBS1 (thrombospondin 1),[1],+5.9 fold
same,decrease in sagging of the skin,healthy female subjects [2],more marked
same,change in skin roughness (Sa parameter),healthy female subjects [3],steadily further reduced
same,change in the echogenicity of the skin,healthy female subjects [4]; after four weeks (T4-T0) (FIG. 3),slight decrease in echogenicity
same,change in the echogenicity of the skin,healthy female subjects [4]; as the study progressed (to T12) (FIG. 3),steadily improved
same,bioavailability (skin penetration) of N-hexanoyl-phytosphingosine from formulation,[5],increase in bioavailability
same,echogenicity of the skin on the upper arm compared with the starting value,"healthy female subjects [6]; 0.02% in formulation, increase only measurable after a treatment time of eight weeks (FIG. 5)",less marked
same,echogenicity of the skin on the upper arm compared with the starting value,"healthy female subjects [6]; 0.05% in formulation, four, eight and twelve weeks (FIG. 5)",increase in the echogenicity of the skin
